Experimental data: patent US20240010993A1, “CELL CULTURE CHAMBER AND METHOD FOR CULTURING CELLS AND FOR THE IN VITRO PRODUCTION OF CELL LAYERS AND ORGAN MODELS” (Dynamic42 GmbH, priority 2021, published 2024)

Tests used:
[1] = cited from earlier work
[2] = test system: macrophages in co-culture with liver sinusoidal endothelial cells and hepatocytes; assay: LPS addition to liver model to check activatability of immune cells (cytokine release); assay type: cell-based; settings: LPS added at the tenth and fourteenth day of culture; FIG. 8
Protocol: In addition, lipopolysaccharide (LPS) was added to some samples at the tenth day and the fourteenth day to check the activatability of immune cells (macrophages) contained in the liver model, and the respective reactions were shown. The addition of LPS as a so-called pyrogenic substance represents a test for endotoxins that is customary in the art. Immune cells such as macrophages respond to this stimulus with increased release of cytokines. […] It can be deduced from this that macrophages in co-culture with the investigated liver sinusoidal endothelial cells and hepatocytes were capable of reacting with an immune response to an endotoxin even after 10 or after 14 days. This is important for being able to detect immune cell-mediated side effects of drugs.

[3] = adsorption effect of PBT in cell culture chambers (active substance adsorption); assay type: physicochemical; settings: after 24 hours; both embodiments Chip PBT-BC1 and Chip PBT-BC2; control stock solution propiconazole 100 μM, troglitazone 64 μM
Protocol: After an incubation period of 24 h, at least 80% of the starting concentration of the propiconazole or the troglitazone is detectable in the culture medium (cf. FIG. 3A, FIG. 3B).
FIGS. 3A and 3B show results of experiments on the adsorption effect of PBT in two cell culture chambers 1 according to the disclosure of different designs. The designation, “Chip PBT-BC1,” denotes a first embodiment of the cell culture chamber 1, and “Chip PBT-BC2” a second embodiment. The first embodiment has a width B of 34.6 mm, a depth T of 6.56 mm, and a height H of 0.7 mm for the first channel 3. The second channel 4 has the dimensions of 44.8 mm, 3.6 mm, and 0.8 mm (W/D/H). The corresponding dimensions for the second embodiment, “Chip PBT-BC2,” of the cell culture chamber 1 are 34.6 mm, 8.06 mm, and 0.7 mm (W/D/H) for the first channel 3 and 49.4 mm, 5.61 mm, and 1.0 mm (B/T/H) for the second channel 4.
In comparison, a control in the form of a stock solution (100 μM) with propiconazole is given. […] In each case, it can be seen from the two graphics that, in both embodiments of the cell culture chamber 1 according to the disclosure, more than 85% of the propiconazole (FIG. 3A) and more than 80% of the troglitazone (FIG. 3B) in the culture medium 7 could be detected even after 24 hours.

[4] = after 24 hours in PDMS chips; binds irreversibly to PDMS; cited from earlier work

Compound: Cc1c(C)c2c(c(C)c1O)CCC(C)(COc1ccc(CC3SC(=O)NC3=O)cc1)O2 (stereo not shown) [troglitazone]
- log P [1]: 3.60

Compound: lipopolysaccharide [LPS]
- concentration of IL-1beta after the addition of LPS [2]: distinct increase

Compound: CCCC1COC(Cn2cncn2)(c2ccc(Cl)cc2Cl)O1 (stereo not shown) [propiconazole]
- percentage (RTC - ratio to control) remaining and detectable in the culture medium [3]: more than 85%
- detected fraction of the starting concentration in the culture medium [4]: less than 30%
